Data: patent US20240425523A1, “Compounds for the Degradation of EGFR Kinase” (Beigene Switzerland GMBH, priority 2023, published 2024)

How the values were obtained:
Type in all cases: cell-based
[1] = target: T1, EGFR L858R (BaF3-L858R cells) (Homo sapiens, UniProt P00533, L858R); assay: Cell degradation of EGFR, HTRF assay, BaF3-L858R cells; details: 16 h treatment; for DC50: EGFR degradation; for Dmax: maximum percentage of degradation
T1 construct: host or cells: BaF3
How it was run: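 EGFR L858R levels measured by HTRF antibody pair in lysed BaF3-L858R cells after 16 h compound exposure (8-point 5-fold series from 10 uM final, 37° C). Degradation is relative to DMSO-only cells; DC50 fitted with Hill equation, Dmax taken as the largest percent loss.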

[2] = target: T2, EGFR-L858R/C797S (H1975-clone #8 cells) (Homo sapiens, UniProt P00533, C797S/L858R); assay: Cell degradation of EGFR, HTRF assay, H1975-clone#8 (L858R/C797S) cells; details: 16 h treatment; for DC50: EGFR degradation; for Dmax: maximum percentage of degradation
T2 construct: expressed in transfected cells; host or cells: H1975 (endogenous EGFR knocked out, clone #8)

[3] = target: T3, p-EGFR L858R (BaF3-L858R cells) (Homo sapiens, UniProt P00533, L858R); assay: Cell p-EGFR inhibition assay, HTRF, BaF3-L858R cells; details: 16 h treatment; for Imax (%): maximum percentage of pEGFR inhibition; for IC50: pEGFR inhibition
T3 construct: host or cells: BaF3
How it was run: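 BaF3-L858R cells treated 16 h at 37 °C, 5% CO2 with compound from 10 uM top, 5-fold dilutions, 8 doses, in 0.1% DMSO medium. Lysates read overnight by HTRF p-EGFR antibodies; IC50 fitted to four-parameter curve against DMSO high control.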

[4] = target: p-EGFR Del19/C797S (H1975-clone #23 cells) (Homo sapiens, UniProt P00533); assay: Cell p-EGFR inhibition assay, HTRF, H1975-clone#23 (DEL19/C797S) cells; details: 16 h treatment; for Imax (%): maximum percentage of pEGFR inhibition; for IC50: pEGFR inhibition
How it was run: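 Phospho-EGFR read by overnight HTRF on lysates, normalized to DMSO-treated high control; IC50, Hill slope and Imax fitted. Compounds were applied for 16 h (10 uM top, 5-fold steps, 8 doses) to an H1975 single clone carrying only exogenous Del19/C797S EGFR after sgRNA knockout of endogenous copies.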

| Structure (SMILES) | DC50 [1] [nM] | Dmax [1] [%] | DC50 [2] [nM] | Dmax [2] [%] | Imax (%) [3] [%] | IC50 [3] [nM] | Imax (%) [4] [%] | IC50 [4] [nM] |
| --- | --- | --- | --- | --- | --- | --- | --- | --- |
| Cc1cc2cc(n1)-c1cnn(C)c1OC[C@H]1CCC(C1)CN1/C(=N/C2=O)Nc2cc(F)c(N3CCN(C4CCN(c5cnc(C6CCC(=O)NC6=O)cc5C)CC4)CC3)cc21 (some centres unmarked) [Example 100, 3-(5-(4-(4-((7^1R,7^3S,E)-5^5-fluoro-1^1,2^6-dimethyl-3-oxo-5^2,5^3-dihydro-1^1H,5^1H-9-oxa-4-aza-5(2,1)-benzo[d]imidazola-2(2,4)-pyridina-1(4,5)-pyrazola-7(1,3)-cyclopentanacyclononaphane-5^6-yl)piperazin-1-yl)piperidin-1-yl)-4-methylpyridin-2-yl)piperidine-2,6-dione] | 3.34 | 72.3 | 3.07 | 87.3 | 107.3 | 6.7 | 101 | 0.5 |
| Cc1cc2cc(n1)-c1c(C)nn(C)c1OC[C@H]1CC[C@H](C1)CN1/C(=N/C2=O)Nc2ccc(N3CCN([C@H]4CCN(c5cnc(C6CCC(=O)NC6=O)cc5C)CC4(F)F)CC3)cc21 (stereo partly drawn) [Example 101, 3-(5-((S)-3,3-difluoro-4-(4-((7^1R,7^3S,E)-1^1,1^3,2^6-trimethyl-3-oxo-5^2,5^3-dihydro-1^1H,5^1H-9-oxa-4-aza-5(2,1)-benzo[d]imidazola-2(2,4)-pyridina-1(4,5)-pyrazola-7(1,3)-cyclopentanacyclononaphane-5^6-yl)piperazin-1-yl)piperidin-1-yl)-4-methylpyridin-2-yl)piperidine-2,6-dione] | 2.22 | 81.8 | 1.58 | 90.2 | 106.4 | 3.5 | 101 | 1 |
| COC[C@H]1CN(c2ccc3c(c2)N2CC4CC[C@H](COc5c(c(C(F)F)nn5C)-c5cc(cc(C)n5)C(=O)/N=C/2N3)C4)CCN1C1CCN(c2cc(F)c([C@H]3CCC(=O)NC3=O)c(F)c2)CC1 [Example 104, (R)-3-(4-(4-((R)-4-((7^1R,7^3S,E)-1^3-(difluoromethyl)-1^1,2^6-dimethyl-3-oxo-5^2,5^3-dihydro-1^1H,5^1H-9-oxa-4-aza-5(2,1)-benzo[d]imidazola-2(2,4)-pyridina-1(4,5)-pyrazola-7(1,3)-cyclopentanacyclononaphane-5^6-yl)-2-(methoxymethyl)piperazin-1-yl)piperidin-1-yl)-2,6-difluorophenyl)piperidine-2,6-dione] | 4.1 | 83.2 | 3.7 | 86.9 | 95 | 4.4 | 100.5 | 2 |
| COC[C@@H]1CN(c2ccc3c(c2)N2CC4CC[C@H](COc5c(cnn5C)-c5cc(cc(C)n5)C(=O)/N=C/2N3)C4)CCN1C1CN(C2CCN(c3cc(F)c([C@H]4CCC(=O)NC4=O)c(F)c3)CC2)C1 [Example 108, (R)-3-(4-(4-(3-((S)-4-((7^1R,7^3S,E)-1^1,2^6-dimethyl-3-oxo-5^2,5^3-dihydro-1^1H,5^1H-9-oxa-4-aza-5(2,1)-benzo[d]imidazola-2(2,4)-pyridina-1(4,5)-pyrazola-7(1,3)-cyclopentanacyclononaphane-5^6-yl)-2-(methoxymethyl)piperazin-1-yl)azetidin-1-yl)piperidin-1-yl)-2,6-difluorophenyl)piperidine-2,6-dione] | 3.32 | 87.3 | 0.75 | 77 | 95.9 | 7.7 | 100.3 | 0.6 |
| Cc1cc2cc(n1)-c1cnn(C)c1OC[C@H]1CC[C@H](C1)CN1/C(=N/C2=O)Nc2ccc(N3CCC(N4CC(Nc5cc(F)c([C@H]6CCC(=O)NC6=O)c(F)c5)C4)CC3)cc21 [Example 112, (R)-3-(4-((1-(1-((7^1R,7^3S,E)-1^1,2^6-dimethyl-3-oxo-5^2,5^3-dihydro-1^1H,5^1H-9-oxa-4-aza-5(2,1)-benzo[d]imidazola-2(2,4)-pyridina-1(4,5)-pyrazola-7(1,3)-cyclopentanacyclononaphane-5^6-yl)piperidin-4-yl)azetidin-3-yl)amino)-2,6-difluorophenyl)piperidine-2,6-dione] | 2.2 | 72.8 | 0.41 | 67.5 | 104.4 | 15.4 | 98.9 | 0.4 |

Now from value to compound:

| DC50 [1] [nM] | Dmax [1] [%] | DC50 [2] [nM] | Dmax [2] [%] | Imax (%) [3] [%] | IC50 [3] [nM] | Imax (%) [4] [%] | IC50 [4] [nM] | Structure (SMILES) |
| --- | --- | --- | --- | --- | --- | --- | --- | --- |
| 0.59 | 85.8 | 0.76 | 91.5 | 95 | 1.5 | 100.5 | 0.6 | Cc1cc2cc(n1)-c1cnn(C)c1OC[C@H]1CCC(C1)CN1/C(=N/C2=O)Nc2cc(C)c(N3CCN([C@@H]4CCN(c5ccc(C6CCC(=O)NC6=O)nc5C)C[C@@H]4F)CC3)cc21 (stereo partly drawn) [Example 102, 3-(5-((3S,4R)-3-fluoro-4-(4-((7^1R,7^3S,E)-1^1,2^6,5^5-trimethyl-3-oxo-5^2,5^3-dihydro-1^1H,5^1H-9-oxa-4-aza-5(2,1)-benzo[d]imidazola-2(2,4)-pyridina-1(4,5)-pyrazola-7(1,3)-cyclopentanacyclononaphane-5^6-yl)piperazin-1-yl)piperidin-1-yl)-6-methylpyridin-2-yl)piperidine-2,6-dione] |
| 3.38 | 81.6 | 2.53 | 83.3 | 95.6 | 16.3 | 102 | 0.8 | Cc1cc2cc(n1)-c1cnn(C)c1OC[C@H]1CCC(C1)CN1/C(=N/C2=O)Nc2ccc(N3CCN(C4CCN(c5ccc(NC6CCC(=O)NC6=O)cc5Cl)CC4)CC3)cc21 (some centres unmarked) [Example 103, 3-((3-chloro-4-(4-(4-((7^1R,7^3S,E)-1^1,2^6-dimethyl-3-oxo-5^2,5^3-dihydro-1^1H,5^1H-9-oxa-4-aza-5(2,1)-benzo[d]imidazola-2(2,4)-pyridina-1(4,5)-pyrazola-7(1,3)-cyclopentanacyclononaphane-5^6-yl)piperazin-1-yl)piperidin-1-yl)phenyl)amino)piperidine-2,6-dione] |
| 3.68 | 82.7 | 4.09 | 85.2 | 93.9 | 10.1 | 100.1 | 0.7 | Cc1cc2cc(n1)-c1cnn(C)c1OC[C@H]1CCC(C1)CN1/C(=N/C2=O)Nc2ccc(N3CCN([C@@H]4CCN(c5ccc(C6CCC(=O)NC6=O)nc5C)CC4(F)F)CC3)cc21 (stereo partly drawn) [Example 105, 3-(5-((R)-4-(4-((7^1R,7^3S,E)-1^1,2^6-dimethyl-3-oxo-5^2,5^3-dihydro-1^1H,5^1H-9-oxa-4-aza-5(2,1)-benzo[d]imidazola-2(2,4)-pyridina-1(4,5)-pyrazola-7(1,3)-cyclopentanacyclononaphane-5^6-yl)piperazin-1-yl)-3,3-difluoropiperidin-1-yl)-6-methylpyridin-2-yl)piperidine-2,6-dione] |
| 6.69 | 82.5 | 2.45 | 83.3 | 97.6 | 16 | 99.8 | 0.8 | COCC1(N2CCN(c3ccc4c(c3)N3CC5CC[C@H](COc6c(cnn6C)-c6cc(cc(C)n6)C(=O)/N=C/3N4)C5)CC2)CCN(c2ccc(C3CCC(=O)NC3=O)nc2C)CC1 (some centres unmarked) [Example 106, 3-(5-(4-(4-((7^1R,7^3S,E)-1^1,2^6-dimethyl-3-oxo-5^2,5^3-dihydro-1^1H,5^1H-9-oxa-4-aza-5(2,1)-benzo[d]imidazola-2(2,4)-pyridina-1(4,5)-pyrazola-7(1,3)-cyclopentanacyclononaphane-5^6-yl)piperazin-1-yl)-4-(methoxymethyl)piperidin-1-yl)-6-methylpyridin-2-yl)piperidine-2,6-dione] |
| 3.18 | 80.7 | 1.92 | 85.7 | 97.6 | 16.1 | 100.1 | 1 | Cc1cc2cc(n1)-c1cnn(C)c1OC[C@H]1CCC(C1)CN1/C(=N/C2=O)Nc2ccc(N3CCN(C4CCN(c5c(F)cc(OC6CCC(=O)NC6=O)cc5F)CC4)CC3)cc21 (some centres unmarked) [Example 111, 3-(4-(4-(4-((7^1R,7^3S,E)-1^1,2^6-dimethyl-3-oxo-5^2,5^3-dihydro-1^1H,5^1H-9-oxa-4-aza-5(2,1)-benzo[d]imidazola-2(2,4)-pyridina-1(4,5)-pyrazola-7(1,3)-cyclopentanacyclononaphane-5^6-1)piperazin-1-yl)piperidin-1-yl)-3,5-difluorophenoxy)piperidine-2,6-dione] |
